Source: patent US20250066351A1, “PYRAZOLO[1,5-A]PYRIDIN-2,3-YL AMIDES AS KV7 CHANNEL ACTIVATORS” (Biohaven Therapeutics Ltd., priority 2022, published 2025)

target: T1, hKv7.2/7.3 (Homo sapiens, UniProt O43525+O43526); test: Kv7.2/7.3 Activation Assay, QPatch planar patch-clamp single concentration screen; format: cell-based; details: increase in current over baseline, Kv7.2/Kv7.3 co-expressing HEK cells, compound concentration 3 μM, steady-state current at end of 2 s pulse to −30 mV
T1 construct: host or cells: HEK cells, tetracycline-inducible expression
Method: The ability of compounds to potentiate K-currents in Kv7.2/7.3 containing HEK cells was assessed using planar patch-clamp on the QPatch automated screening platform.
Cell Line: The hKv7.2/7.3 cell line was obtained from Chantest (Cleveland, OH 44128) cat. #CT6147. These HEK cells will express the Kv7.2/7.3 ion channels when induced.
Cell Culture: Cells were maintained in a media containing DMEM/F12; 50/50 (GIBCO cat. #11330), 10% Fetal Bovine Serum (FBS) (GIBCO cat. #26140), 100 units/mL Penicillin-Streptomycin (GIBCO cat. #15140), 0.005 mg/mL Blasticidin (INVIVOGEN cat. #ant-bl-1), 0.5 mg/mL Geneticin (GIBCO cat. #10131), 0.1 mg/mL Zeocin (GIBCO cat. #R25001). Cells used in the electrophysiology assay were maintained in a media without Blasticidin, Geneticin and Zeocin for 2 days and channel expression was induced by adding tetracycline (BIOLINE cat. #BIO-87030) at a final concentration of […]. Cells were grown in T-175 flask to ˜75% confluency. Currents were recorded 24 hours after channel induction.
Compound Plates: Test compounds were prepared by performing serial dilutions on a Biomek NX^P (BECKMAN COULTER). Final dilutions were made in external recording solution with a final DMSO concentration of 0.1% DMSO. For single concentration screens each plate had 10 μM retigabine as a positive control and 0.1% DMSO as a negative control.
Electrophysiology: On the day of the experiment cells were washed with Hank's Balanced Salt Solution (HBBS) (GIBCO cat. #14175) and harvested with Tryple (GIBCO cat. #12604). Cells were then centrifuged at 2000 rpm for 5 minutes and resuspended in CHO—S-SFM (GIBCO cat. #12052) at […]. Cells were stirred for 30 minutes before experiments were started. External recording solution contained (in mM): NaCl (145), KCl (4), CaCl2 (2), MgCl2 (1), HEPES (10) and Glucose (10); pH was adjusted to 7.4 with NaOH and the osmolarity was adjusted to 300-305 mOsM with sucrose if necessary. Internal solution contained (in mM): KCl (125), KF (10), EGTA (5), Na2ATP (5), MgCl2 (3.2), HEPES (5); pH was adjusted to 7.2 with KOH and the osmolarity was adjusted to 298-302 mOsM with sucrose.
Potassium channel activity was measured on the QPatch HTX (Sophion Bioscience) using QPlates with 48-wells/plate. Each cell was taken as an independent experiment and only one compound was tested per well. Potassium channel activity was elicited by holding at −80 mV and stepping to −30 mV for 2 s followed by a 100 ms pulse to −120 mV.
Single concentration screen: Baseline conditions were obtained by recording 5 sweeps in the external solution only, this was repeated for three applications of the external solution. The effect of test compounds on elicited current was then assessed by recording 5 sweeps in the presence of a 3 μM compound solution. The steady-state current at the end of the 2 s pulse to −30 mV was measured to determine the fold increase from baseline.

| QPatch Kv7.2/7.3 Activity | SMILES |
| --- | --- |
| + (2.0-3.99 (+)) | C[C@](O)(CC(=O)Nc1nn2ccc(Cl)cc2c1-c1ccc(F)cc1)C(F)(F)F [Example 62, (S)-N-(5-chloro-3-(4-fluorophenyl)pyrazolo [1,5-a]pyridin-2-yl)-4,4,4-trifluoro-3-hydroxy-3-methylbutanamide] |
| + (2.0-3.99 (+)) | C[C@@](O)(CC(=O)Nc1nn2ccc(Cl)cc2c1-c1ccc(F)cc1)C(F)(F)F [Example 63, (R)-N-(5-chloro-3-(4-fluorophenyl)pyrazolo [1,5-a]pyridin-2-yl)-4,4,4-trifluoro-3-hydroxy-3-methylbutanamide] |
| +++ (>6-fold (+++)) | CC(C)(F)CC(=O)Nc1nn2ccc(C(F)(F)F)cc2c1C1CCC1 [Example 64, N-(3-cyclobutyl-5-(trifluoromethyl)pyrazolo [1,5-a]pyridin-2-yl)-3-fluoro-3-methylbutanamide] |
| ++ (4.0-5.99 (++)) | CC(C)(C)CC(=O)Nc1nn2c(C(F)F)cccc2c1C1CCC1 [Example 65, N-(3-cyclobutyl-7-(difluoromethyl)pyrazolo [1,5-a]pyridin-2-yl)-3,3-dimethylbutanamide] |
| − (<1.2-fold (−)) | CC(C)(O)CC(=O)Nc1nn2c(-c3ccc(F)cc3)cccc2c1C1CCC1 [Example 66, N-(3-cyclobutyl-7-(4-fluorophenyl)pyrazolo [1,5-a]pyridin-2-yl)-3-hydroxy-3-methylbutanamide] |
| − (<1.2-fold (−)) | Cn1ccc(-c2c(NC(=O)CC(C)(C)O)nn3ccc(C(F)(F)F)cc23)n1 [Example 67, 3-hydroxy-3-methyl-N-(3-(1-methyl-1H-pyrazol-3-yl)-5-(trifluoromethyl)pyrazolo [1,5-a]pyridin-2-yl)butanamide] |
| + (2.0-3.99 (+)) | CC(C)(O)CC(=O)Nc1nn2ccc(Cl)cc2c1-c1ccc(OC(F)(F)F)cc1 [Example 68, N-(5-chloro-3-(4-(trifluoromethoxy)phenyl)pyrazolo[1,5-a]pyridin-2-yl)-3-hydroxy-3-methylbutanamide] |
| + (2.0-3.99 (+)) | CC(C)(C)OC(=O)Nc1nn2ccc(Br)cc2c1C1CCC1 [Example 69, tert-butyl (5-bromo-3-cyclobutylpyrazolo[1,5-a]pyridin-2-yl)carbamate] |
| + (2.0-3.99 (+)) | CC(C)(O)CC(=O)Nc1nn2c(C3CC3)cccc2c1C1CCC1 [Example 70, N-(3-cyclobutyl-7-cyclopropylpyrazolo [1,5-a]pyridin-2-yl)-3-hydroxy-3-methylbutanamide] |
| + (2.0-3.99 (+)) | C[C@](O)(CC(=O)Nc1nn2ccc(Cl)cc2c1-c1ccc(F)cc1)c1ccccc1 [Example 71, (S)-N-(5-chloro-3-(4-fluorophenyl)pyrazolo [1,5-a]pyridin-2-yl)-3-hydroxy-3-phenylbutanamide] |
| +/− (1.2-1.99-fold (+/−)) | CC(C)(O)CC(=O)Nc1nn2c(C(F)F)cccc2c1C1CCC1 [Example 72, N-(3-cyclobutyl-7-(difluoromethyl)pyrazolo [1,5-a]pyridin-2-yl)-3-hydroxy-3-methylbutanamide] |
| − (<1.2-fold (−)) | C[C@@](O)(CC(=O)Nc1nn2cccc(F)c2c1C1CCC1)c1ccccn1 [Example 73, (R)-N-(3-cyclobutyl-4-fluoropyrazolo [1,5-a]pyridin-2-yl)-3-hydroxy-3-(pyridin-2-yl)butanamide] |
| ++ (4.0-5.99 (++)) | CC(C)(C)CC(=O)Nc1nn2ccc(C3(O)CCC3)cc2c1C1CCC1 [Example 74, N-(3-cyclobutyl-5-(1-hydroxycyclobutyl)pyrazolo[1,5-a]pyridin-2-yl)-3,3-dimethylbutanamide] |
| − (<1.2-fold (−)) | CC(C)(C)CC(=O)Nc1nn2c(C(F)(F)F)cccc2c1-c1ccc(F)cc1 [Example 75, N-(3-(4-fluorophenyl)-7-(trifluoromethyl)pyrazolo [1,5-a]pyridin-2-yl)-3,3-dimethylbutanamide] |
| + (2.0-3.99 (+)) | CC(C)(O)CC(=O)Nc1nn2c(C(F)(F)F)cccc2c1-c1ccc(F)cc1 [Example 76, N-(3-(4-fluorophenyl)-7-(trifluoromethyl)pyrazolo [1,5-a]pyridin-2-yl)-3-hydroxy-3-methylbutanamide] |
| + (2.0-3.99 (+)) | CCC(O)(CC)CC(=O)Nc1nn2ccc(C(F)(F)F)cc2c1-c1ccc(F)cc1 [Example 77, 3-ethyl-N-(3-(4-fluorophenyl)-5-(trifluoromethyl)pyrazolo [1,5-a]pyridin-2-yl)-3-hydroxypentanamide] |
| + (2.0-3.99 (+)) | C[C@](O)(CC(=O)Nc1nn2c(C(F)(F)F)cccc2c1-c1ccc(F)cc1)c1ccccc1 [Example 78, (S)-N-(3-(4-fluorophenyl)-7-(trifluoromethyl)pyrazolo [1,5-a]pyridin-2-yl)-3-hydroxy-3-phenylbutanamide] |
| ++ (4.0-5.99 (++)) | CC(C)(C)CC(=O)Nc1nn2ccc(C(C)(C)O)cc2c1-c1ccc(F)cc1 [Example 79, N-(3-(4-fluorophenyl)-5-(2-hydroxypropan-2-yl)pyrazolo[1,5-a]pyridin-2-yl)-3,3-dimethylbutanamide] |
| − (<1.2-fold (−)) | CC(C)(C)CC(=O)Nc1nn2ccc(C(F)(F)F)cc2c1C#N [Example 80, N-(3-cyano-5-(trifluoromethyl)pyrazolo [1,5-a]pyridin-2-yl)-3,3-dimethylbutanamide] |
| ++ (4.0-5.99 (++)) | CC(C)(C)CC(=O)Nc1nn2c(Cl)cc(Cl)cc2c1-c1ccc(F)cc1 [Example 81, N-(5,7-dichloro-3-(4-fluorophenyl)pyrazolo [1,5-a]pyridin-2-yl)-3,3-dimethylbutanamide] |
| +++ (>6-fold (+++)) | CC(C)(C)CC(=O)Nc1nn2ccc(Cl)cc2c1-c1ccc(F)cc1 [Example 82, N-(5-chloro-3-(4-fluorophenyl)pyrazolo [1,5-a]pyridin-2-yl)-3,3-dimethylbutanamide] |
| + (2.0-3.99 (+)) | O=C(CC(O)(CF)CF)Nc1nn2ccc(C(F)(F)F)cc2c1C1CCC1 [Example 83, N-(3-cyclobutyl-5-(trifluoromethyl)pyrazolo[1,5-a]pyridin-2-yl)-4-fluoro-3-(fluoromethyl)-3-hydroxybutanamide] |
| +/− (1.2-1.99-fold (+/−)) | CC(C)(C)CC(=O)NNc1nn2ccc(C(F)(F)F)cc2c1-c1ccc(F)cc1 [Example 84, N′-(3-(4-fluorophenyl)-5-(trifluoromethyl)pyrazolo [1,5-a]pyridin-2-yl)-3,3-dimethylbutanehydrazide] |
| − (<1.2-fold (−)) | CC(C)(O)CC(=O)NNc1nn2ccc(C(F)(F)F)cc2c1-c1ccc(F)cc1 [Example 85, N′-(3-(4-fluorophenyl)-5-(trifluoromethyl)pyrazolo [1,5-a]pyridin-2-yl)-3-hydroxy-3-methylbutanehydrazide] |
| +/− (1.2-1.99-fold (+/−)) | CC(C)(C)CC(=O)Nc1nn2ccc(C(F)(F)F)cc2c1C(C)(C)O [Example 86, N-(3-(2-hydroxypropan-2-yl)-5-(trifluoromethyl)pyrazolo[1,5-a]pyridin-2-yl)-3,3-dimethylbutanamide] |
| + (2.0-3.99 (+)) | C[C@@](O)(CC(=O)Nc1nn2ccc(C(F)(F)F)cc2c1C1CCC1)C1CC1 [Example 87, (R)-N-(3-cyclobutyl-5-(trifluoromethyl)pyrazolo[1,5-a]pyridin-2-yl)-3-cyclopropyl-3-hydroxybutanamide] |
